In patent US8604206B2, “Compositions for preventing and/or treating degenerative disorders of the central nervous system” (Amicus Therapeutics, Inc., priority 2009, dated 2013):
Where a name gives a salt, the structure may show the parent alone. Read-outs that look alike come from different tables or passages of the source.

Columns and labels:
GCase [1] = target: GCase (Homo sapiens (Human), UniProt P04062); assay: GCase activity enhancement (EC50, Emax) of Table 2B; type: cell-based; settings: for increase in GCase activity compared to IFG-tartrate: compared to reference compound IFG-tartrate
lysosomal GCase = lysosomal GCase (Homo sapiens (Human), UniProt P04062); assay: In situ lysosomal GCase inhibition and washout assay in fibroblasts from a normal subject; type: cell-based; settings: for in situ washout: fibroblasts treated at IC90, then drug-free medium; for IC50: fibroblasts, 16-24 hours with compound, PFBFDβGlu substrate
Experimental: The effect of the novel compounds of the present invention on lysosomal GCase activity was assayed in situ using fibroblasts established from a normal subject. Cells seeded in 48-well plates were incubated with the indicated concentrations of compound for 16-24 hours. For the dose-response assays, cells were incubated with the in situ substrate 5-(pentafluorobenzoylamino)fluorescein di-β-D-glucopyranoside (PFBFDβGlu) for 1 hour and subsequently lysed to determine the extent of substrate hydrolysis in the presence of compound. […] Inhibition was determined as the ratio of activity in the presence of compound to that in the absence of compound. […] Cells were washed extensively and incubated in drug-free medium to allow net compound efflux from cells. Cells were then tested for lysosomal GCase activity at 2 hour intervals over a total period of 8 hours following compound removal. The increase in activity over time was fitted with a single exponential function to determine the compound's washout time.

[2] = Blood brain barrier penetration, plasma and brain levels after oral administration; type: in vivo, mouse; settings: mice, single 30 mg/kg (free base equivalent) p.o.
Experimental: For this purpose, 8-week old wild-type male mice (C57BL/6) were administered a single 30 mg/kg (free base equivalent) p.o. dose of reference or test compound by gavage (n=3 mice per time point). Dosing solutions were prepared in water. After dosing, mice were euthanized with CO2 at the following time points: 0-, 0.5-, 1-, and 4-hour post-dose. […] Similarly, brains were collected from each mouse. Plasma was derived by spinning whole blood at 2,700×g for 10 minutes at 4° C. followed by storage on dry ice. Whole brains were washed in cold PBS to remove contaminating blood, blotted dry, flash frozen on dry ice, and ultimately stored at −80° C. until analysis. To prepare brain samples for analysis, 50-100 mg of tissue was homogenized in […] of water/mg tissue. Samples were then clarified by centrifugation. Next, 25 μl of the brain homogenate supernatant or 25 μl of plasma were combined with 25 μl of acetonitrile:water (95/5). […] Samples were again clarified by centrifugation and 75 μl of the supernatant was combined with 75 μl of acetonitrile. Samples were then analyzed for compound levels by LC-MS/MS at PPD Inc. (3230 Deming Way, Middleton, Wis. 53562). In brief, a Thermo Betasil, Silica-100, 50×3 mm, 5μ column equilibrated with a mixture of mobile phase consisting of 5 mM ammonium formate and 0.05% formic acid in (A) 95:5 acetonitrile:water or (B) 70:20:10 methanol:water:acetonitrile was employed. Between 20 and 30 μl sample was injected for analysis. For calculating drug concentrations, raw data for plasma (ng/mL) and brain (ng/g) was converted to nM using the molecular weight of respective compounds and assuming 1 g of tissue is equivalent to 1 mL volume. Concentration as a function of time was plotted in GraphPad Prism version 4.02.

Rat pharmacokinetics = type: in vivo; settings: listed as (3R,4R,5S)-5-(1-fluoroethyl)piperidine-3,4-diol-HCl
Experimental: Pharmacokinetic (PK) data was obtained in rats to assess the bioavailability of test compound. In particular, the following PK parameters were calculated: bioavailability as measured by area under the Concentration/Time curve (AUC), fraction of dose available (% F; further defined below), clearance (CL), volume of distribution (Vd), and half-life (t½). […] Three rats were used per dosing group. Blood was collected over a 24-hr period. The time points for blood collection after intravenous administration were: 0, 2.5, 5, 10, 15, 30, 45 min, 1, 2, 4, 8, 12, and 24 hrs; time points for blood collection after p.o. administrations were: 0, 5, 15, 30, 45 min, 1, 2, 3, 4, 8, 12, and 24 hrs. Plasma samples were analyzed for compound levels by LC-MS/MS at PPD. Raw data was analyzed by non-compartmental analysis in Win-nonLin to calculate VD, % F, CL, and t1/2.

GCase [3] = target: GCase (Mus musculus, UniProt P17439); assay: GCase enhancement in tissues of orally dosed mice; type: in vivo; settings: 9 doses over 2 weeks
Experimental: The ability of orally administered test compounds ((3R,4R,5S)-5-(difluoromethyl)piperidine-3,4-diol, (3R,4R,5S)-5-(1-fluoroethyl)piperidine-3,4-diol, (3R,4R,5S)-5-((R)-1-fluoropropyl)piperidine-3,4-diol hydrochloride, or (3R,4R,5S)-5-benzylpiperidine-3,4-diol) to elevate GCase levels was assessed in mice. For this purpose, 8-week old wild-type male mice (C57BL/6) were administered a […] p.o. (gavage) dose of a compound of the present invention (i.e., (3R,4R,5S)-5-(difluoromethyl)piperidine-3,4-diol, (3R,4R,5S)-5-(1-fluoroethyl)piperidine-3,4-diol, (3R,4R,5S)-5-((R)-1-fluoropropyl)piperidine-3,4-diol hydrochloride, or (3R,4R,5S)-5-benzylpiperidine-3,4-diol). The dosing solutions were prepared in water. Compounds were administered over 2 weeks as follows: week 1, Mon-Fri (On), Sat-Sun (Off); week 2, Mon-Thu (On); necropsy on Friday. Thus, a total of 9 doses (dosing solutions prepared fresh every day) were given to each mouse, with a 24-hour washout between the last dose and necropsy.
Plasma was collected by spinning blood at 2700 g for 10 minutes at 4° C. Liver, spleen, lung, and brain tissues were removed, washed in cold PBS, blotted dry, flash frozen on dry ice, and stored at −80° C. until analysis. GCase levels were measured by homogenizing approximately 50 mg tissue in 500 μL McIlvane (MI) buffer (100 mM sodium citrate, 200 mM sodium phosphate dibasic, 0.25% sodium taurocholate, and 0.1% Triton X-100, pH 5.2) at pH 5.2 for 3-5 seconds on ice with a micro homogenizer. Homogenates were then incubated at room temperature without and with 2.5 mM conduritol-B-epoxide (CBE) for 30 min. Finally, 3.7 mM 4-methylumbeliferryl-β-glucoside (4-MUG) substrate was added and incubated at 37° C. for 60 min. […] Fluorescence was measured on a plate reader for 1 sec/well using 355 nm excitation and 460 nm emission. Total protein was determined in lysates using the MicroBCA kit according to the manufacturer's instructions. A 4-methylumbelliferone (4-MU) standard curve ranging from 1.0 nM to 50 μM was run in parallel for conversion of raw fluorescence data to absolute GCase activity (in the presence and absence of CBE) and expressed as nanomoles of 4-MU released per milligram of protein per hour (nmol/mg protein/hr). GCase levels and protein levels were calculated using Microsoft Excel (Redmond, Wash.) and GraphPad Prism version 4.02.

[4] = target: recombinant human GCase (rhGCase; Cerezyme®) (Homo sapiens (Human), UniProt P04062, R534H); assay: In vitro enzyme inhibition assay (4-MU-β-D-Glc substrate), inhibition constants; type: biochemical
Experimental: The binding affinity (defined here by Ki binding constant) of GCase for novel compounds of the present invention were empirically determined using enzyme inhibition assays. In brief, the enzyme inhibition assays used monitored the ability of a test compound to bind and prevent the hydrolysis of a fluorogenic substrate in a concentration-dependent mariner. Specifically, the enzyme activity of recombinant human GCase (rhGCase; Cerezyme®, Genzyme Corp.) was measured using the 4-methylumbelliferyl-β-D-glucopyranoside (4-MU-β-D-Glc) fluorogenic substrate in the absence or in the presence of varying amounts of each test compound. […] The enzyme inhibition assays were performed at both pH 7.0 (endoplasmic reticulum pH) and at pH 5.2 (lysosomal pH) to gain insight into the binding affinity (i.e., potency) of compounds for GCase in the endoplasmic reticulum and lysososome.
Various concentrations of test compounds were prepared in buffer “M” consisting of 50 mM sodium phosphate buffer with 0.25% sodium taurocholate at pH 7.0 and pH 5.2. Enzyme (Cerezyme®, a recombinant form of the human enzyme β-glucocerebrosidase) was also diluted in the same buffer “M” at pH 7.0 and pH 5.2. […] Five microliters of diluted enzyme was added to 15 μl of the various inhibitor concentrations or buffer “M” alone and incubated at 37° C. for 1 hour with 50 μl of the substrate preparation to assess β-glucosidase activity at pH 7.0 and pH 5.2. […] Fluorescence was measured on a plate reader for 1 sec/well using 355 nm excitation and 460 nm emission.

[5] = pH 5.2, Cheng-Prusoff from IC50, read-out: Ki (μM) pH 5.2
[6] = pH 5.2, read-out: IC50 (μM) pH 5.2
[7] = pH 7.0, Cheng-Prusoff from IC50, read-out: Ki (μM) pH 7.0
[8] = pH 7.0, read-out: IC50 (μM) pH 7.0
[9] = pH 5.2, repeated in Table 3A, read-out: Ki pH 5.2
[10] = pH 5.2, repeated in Table 3B, read-out: Ki pH 5.2

GCase (Homo sapiens (Human), UniProt P04062), sequence (P04062 40-536): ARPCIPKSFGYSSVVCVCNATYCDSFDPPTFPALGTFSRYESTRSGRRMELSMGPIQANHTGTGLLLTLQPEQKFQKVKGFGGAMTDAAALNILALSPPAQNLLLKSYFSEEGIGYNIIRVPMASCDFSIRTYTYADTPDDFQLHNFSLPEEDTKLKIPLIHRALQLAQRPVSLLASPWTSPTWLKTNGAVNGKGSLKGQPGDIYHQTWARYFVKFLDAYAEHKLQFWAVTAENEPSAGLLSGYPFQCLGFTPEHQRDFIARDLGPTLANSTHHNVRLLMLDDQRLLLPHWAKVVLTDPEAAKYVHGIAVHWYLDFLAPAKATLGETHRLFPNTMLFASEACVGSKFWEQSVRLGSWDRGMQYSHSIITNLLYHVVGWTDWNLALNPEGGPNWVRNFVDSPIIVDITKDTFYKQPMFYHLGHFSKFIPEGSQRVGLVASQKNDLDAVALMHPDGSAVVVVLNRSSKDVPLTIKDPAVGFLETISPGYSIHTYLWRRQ
lysosomal GCase, sequence (P04062 40-536): as above
recombinant human GCase (rhGCase; Cerezyme®), sequence (P04062 40-536 R534H limits assumed): as the sequence (P04062 40-536) above, with R495H counted along it
GCase (Mus musculus, UniProt P17439), sequence (P17439 20-515 limits assumed): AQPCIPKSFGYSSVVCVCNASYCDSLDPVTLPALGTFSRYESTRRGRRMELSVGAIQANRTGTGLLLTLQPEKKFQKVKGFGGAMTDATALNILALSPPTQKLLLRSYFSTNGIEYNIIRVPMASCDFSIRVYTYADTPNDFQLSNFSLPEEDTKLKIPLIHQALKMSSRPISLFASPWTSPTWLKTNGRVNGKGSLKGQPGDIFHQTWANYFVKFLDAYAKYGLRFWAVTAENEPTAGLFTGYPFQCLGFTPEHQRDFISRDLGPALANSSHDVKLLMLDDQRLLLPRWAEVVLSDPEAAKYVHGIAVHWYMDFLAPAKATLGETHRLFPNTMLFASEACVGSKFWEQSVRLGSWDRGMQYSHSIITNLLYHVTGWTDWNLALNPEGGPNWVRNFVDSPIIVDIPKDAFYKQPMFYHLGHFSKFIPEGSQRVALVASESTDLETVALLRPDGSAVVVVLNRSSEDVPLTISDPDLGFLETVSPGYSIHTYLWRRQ

SMILES	EC50 (GCase [1]) [µM]	Ki [4, 5] [µM]	IC50 [4, 6] [µM]	Ki [4, 7] [µM]	IC50 [4, 8] [µM]	in situ washout (lysosomal GCase) [h]	IC50 (lysosomal GCase) [µM]	also measured
CC(O)[C@H]1CNC[C@@H](O)[C@@H]1O (single isomer, unassigned)								increase in GCase activity compared to IFG-tartrate (GCase [1]): enhanced enzyme activity to the same maximum level as reference compound IFG-tartrate at much lower concentration; inhibition of GCase activity (lysosomal GCase): inhibited GCase activity
CC(F)[C@H]1CNC[C@@H](O)[C@@H]1O (single isomer, unassigned)								increase in GCase activity compared to IFG-tartrate (GCase [1]): enhanced enzyme activity to the same maximum level as reference compound IFG-tartrate at much lower concentration; blood brain barrier crossing compared to IFG-tartrate [2]: crossed the blood brain barrier more readily as compared to IFG-tartrate; levels detected in brain compared to IFG-tartrate [2]: higher levels; AUClast (hr*ng/ml), AUC0-24 hr (Rat pharmacokinetics; IV, 3 mg/kg free base): 1370 ± 109 ng·h/mL; CL (Rat pharmacokinetics; IV, 3 mg/kg free base): 36.47 ± 2.88 mL/min/kg; Cmax (Rat pharmacokinetics; IV, 3 mg/kg free base): 2427 ± 192 ng/mL; VD (Rat pharmacokinetics; IV, 3 mg/kg free base): 6.304 ± 0.927 L/kg; t1/2 (Rat pharmacokinetics; IV, 3 mg/kg free base): 2.06 ± 0.47 h; AUClast (hr*ng/ml), AUC0-24 hr (Rat pharmacokinetics; PO, 10 mg/kg free base): 4251 ± 88 ng·h/mL; t1/2 (Rat pharmacokinetics; PO, 10 mg/kg free base): 3.0 ± 0.22 h; AUClast (hr*ng/ml), AUC0-24 hr (Rat pharmacokinetics; PO, 30 mg/kg free base): 14229 ± 127 ng·h/mL; Cmax (Rat pharmacokinetics; PO, 30 mg/kg free base): 4680 ± 369 ng/mL; AUClast (hr*ng/ml), AUC0-24 hr (Rat pharmacokinetics; PO, 100 mg/kg free base): 50946 ± 713 ng·h/mL; Cmax (Rat pharmacokinetics; PO, 100 mg/kg free base): 15733 ± 622 ng/mL; t1/2 (Rat pharmacokinetics; PO, 100 mg/kg free base): 2.4 ± 0.16 h; GCase increase (fold) (GCase [3]; brain, 10 mg/kg FBE p.o., 24-hour washout): 1.5 fold; GCase enhancement in brain and spleen (GCase [3]; mice, p.o.): significant GCase enhancement in brain and spleen; inhibition of GCase activity (lysosomal GCase): inhibited GCase activity; in situ washout from the lysosomal compartment compared to IFG-tartrate (lysosomal GCase; compared to reference compound IFG-tartrate): considerably faster than reference compound IFG-tartrate
O[C@@H]1[C@@H]([C@H](O)c2ccccc2)CNC[C@H]1O [(3R,4R,5R)-5-((S)-hydroxy(phenyl)methyl)-piperidine-3,4-diol]	4.99 ± 0.86	1.36 ± 0.1	3.29 ± 0.25	0.0089 ± 0.0018	0.017 ± 0.0035			Ki [4, 9]: 1.36 ± 0.1 µM; Ki [4, 10]: 1.36 ± 0.1 µM
CC(C)(O)[C@H]1CNC[C@@H](O)[C@@H]1O [(3R,4R,5S)-5-(2-hydroxypropan-2-yl)piperidine-3,4-diol]	0.791 ± 0.162	0.097 ± 0.0015	0.234 ± 0.0037	0.015 ± 0.0007	0.029 ± 0.0013			Ki [4, 9]: 0.097 ± 0.0015 µM; Ki [4, 10]: 0.097 ± 0.0015 µM
C[C@@H](F)[C@@H]1CNC[C@@H](O)[C@@H]1O.Cl [Cmpd 14, (3R,4R,5R)-5((R)-(1-Fluoroethyl)piperidine 3,4-diol Hydrochloride]	0.026 ± 0.003	0.016 ± 0.0007	0.038 ± 0.0016	0.004 ± 0.0001	0.007 ± 0.0003		0.061 ± 0.019	
C[C@@H](F)[C@@H]1CNC[C@@H](O)[C@@H]1O.Cl [Cmpd 14]						3.7 ± 0.63		Emax (%) (GCase [1]): 89.7 ± 3.5%

The next lines start with results.

EC50 (GCase [1]) [µM]	Ki [4, 5] [µM]	IC50 [4, 6] [µM]	Ki [4, 7] [µM]	IC50 [4, 8] [µM]	in situ washout (lysosomal GCase) [h]	IC50 (lysosomal GCase) [µM]	SMILES	also measured
0.49 ± 0.06	0.044 ± 0.0017	0.107 ± 0.0041	0.01 ± 0.0004	0.02 ± 0.0008	10.5 ± 1.75	0.518 ± 0.022	CC(O)[C@H]1CNC[C@@H](O)[C@@H]1O (single isomer, unassigned) [Cmpd 9]	Emax (GCase [1]): 83.7 ± 2.9%
1.06 ± 0.12	0.142 ± 0.0088	0.343 ± 0.021	0.035 ± 0.0021	0.066 ± 0.0041	12 ± 1.65	0.798 ± 0.043	C[C@H](O)[C@H]1CNC[C@@H](O)[C@@H]1O (single isomer, unassigned) [Cmpd 10]	
					2.7 ± 0.12		C[C@H](F)C1CNC[C@@H](O)[C@@H]1O (stereo in doubt) [Cmpd 13, (3R,4R,5R)-5((S)-1-Fluoroethyl)piperidine 3,4-diol Hydrochloride]	
